Earlier results as cited in patent publication US20100215737A1, “COMBINATION PHARMACEUTICAL COMPOSITIONS” (priority 2007, published 2010).
Blank lines part the entries; values can stand above or below the compound they belong to.

How the values were obtained:
[1] = system: subventricular zone and dentate gyrus cells; conditions: young adult rats
[2] = system: endothelial nitric oxide synthase (eNOS); conditions: mouse, in vivo
[3] = marketed formulations
APP holoprotein and mRNA = conditions: 50 microM
[4] = human, in vivo
[5] = relative to small intestine
global ischemic insult = conditions: mice
transient focal ischemia = conditions: in vivo
[6] = system: permanent and transient focal ischemia; conditions: >0.1 mg/kg iv immediately after onset of ischemia
[7] = system: middle cerebral artery occlusion (MCO); conditions: 0.32 to 1.0 mg/kg iv immediately after occlusion
[8] = system: ischemic damage in the rat cortex; conditions: in vivo
[9] = system: transient global ischemia; conditions: 1 mg/kg iv immediately after reperfusion
[10] = system: middle cerebral artery occlusion; conditions: single iv bolus 0.1 mg/kg immediately or 3 h after occlusion
PgP [11] = target: T1, PgP (Homo sapiens, UniProt P08183)
T1 construct: PgP is found in the luminal plasma membrane of brain capillary endothelial cells (BCEC); host or cells: blood brain barrier / primary cultured BCEC

CYP = conditions: concentration of up to 1 μM
[12] = system: mdr-1a knockout and wild type mice; conditions: mdr-1a knockout vs wild type mice, oral
peripheral nerve damage = conditions: after peripheral nerve damage
PgP [13] = target: T1, PgP; conditions: dose-depended effect

T1 sequence (P08183 whole entry): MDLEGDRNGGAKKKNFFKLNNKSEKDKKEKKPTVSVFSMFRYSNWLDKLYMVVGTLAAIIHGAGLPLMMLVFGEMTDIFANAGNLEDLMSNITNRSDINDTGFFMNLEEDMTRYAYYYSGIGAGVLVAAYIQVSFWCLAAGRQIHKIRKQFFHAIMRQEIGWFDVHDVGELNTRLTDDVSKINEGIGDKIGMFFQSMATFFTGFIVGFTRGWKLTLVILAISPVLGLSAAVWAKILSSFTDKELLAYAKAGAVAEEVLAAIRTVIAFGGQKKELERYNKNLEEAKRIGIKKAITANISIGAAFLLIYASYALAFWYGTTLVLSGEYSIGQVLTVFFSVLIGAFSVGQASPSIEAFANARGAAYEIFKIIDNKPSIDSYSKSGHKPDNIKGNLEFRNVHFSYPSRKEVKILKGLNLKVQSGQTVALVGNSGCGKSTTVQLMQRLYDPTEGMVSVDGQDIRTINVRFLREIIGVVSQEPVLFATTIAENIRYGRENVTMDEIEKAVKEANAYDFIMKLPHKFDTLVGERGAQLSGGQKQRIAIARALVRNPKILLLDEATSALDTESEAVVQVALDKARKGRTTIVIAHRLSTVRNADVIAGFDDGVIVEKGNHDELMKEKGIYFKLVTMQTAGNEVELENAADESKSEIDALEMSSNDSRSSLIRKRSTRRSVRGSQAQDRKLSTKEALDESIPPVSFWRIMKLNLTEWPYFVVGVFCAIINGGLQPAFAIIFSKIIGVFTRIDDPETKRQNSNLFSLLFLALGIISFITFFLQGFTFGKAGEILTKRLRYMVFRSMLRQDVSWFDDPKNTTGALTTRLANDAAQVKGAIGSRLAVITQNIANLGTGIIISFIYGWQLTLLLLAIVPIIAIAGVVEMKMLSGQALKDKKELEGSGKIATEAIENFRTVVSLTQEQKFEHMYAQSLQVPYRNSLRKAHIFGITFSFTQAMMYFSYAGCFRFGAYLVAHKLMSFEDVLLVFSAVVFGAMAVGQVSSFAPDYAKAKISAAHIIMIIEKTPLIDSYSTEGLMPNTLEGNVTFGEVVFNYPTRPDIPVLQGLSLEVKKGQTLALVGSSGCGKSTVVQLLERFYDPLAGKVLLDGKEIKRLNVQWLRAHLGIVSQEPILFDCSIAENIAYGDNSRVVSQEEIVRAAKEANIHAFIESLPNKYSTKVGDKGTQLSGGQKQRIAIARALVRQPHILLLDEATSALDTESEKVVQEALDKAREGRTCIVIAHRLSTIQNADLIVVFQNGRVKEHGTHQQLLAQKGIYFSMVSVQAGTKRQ

SMILES: NCCN(CCN)/[N+]([O-])=N/O [DETA/NONOate, (Z)-1-[N-(2-aminoethyl)-N-(2-ammonioethyl)amino]diazen-1-ium-1,2-diolate]
- cell proliferation and migration in the subventricular zone and the dentate gyrus [1]: significantly increases cell proliferation and migration

SMILES: CC[C@H](C)C(=O)O[C@H]1CCC=C2C=C[C@H](C)[C@H](CC[C@@H]3C[C@@H](O)CC(=O)O3)[C@H]21 [Mevastatin]
- cerebral blood flow (CBF) [2]: augmented absolute CBF
- eNOS expression [2]: increase in eNOS mRNA and protein levels

- bioavailability after oral administration, average [3]: approximately 25%
- solubility in water: practically insoluble in water
SMILES: COCCOC(=O)C1=C(C)NC(C)=C(C(=O)OC(C)C)C1c1cccc([N+](=O)[O-])c1 (stereo not drawn) [Nimodipine]

SMILES: C=CC[C@@H]1/C=C(\C)C[C@H](C)C[C@H](OC)[C@H]2O[C@@](O)(C(=O)C(=O)N3CCCC[C@H]3C(=O)O[C@H](/C(C)=C/[C@@H]3CC[C@@H](O)[C@H](OC)C3)[C@H](C)[C@@H](O)CC1=O)[C@H](C)C[C@@H]2OC [Tacrolimus]
- increases in APP holoprotein and mRNA caused by PGE2 treatment (APP holoprotein and mRNA): completely inhibited
- incidence of diabetes [4]: 20 % of all patients
- ileum and colonic absorption efficiency [5]: half that observed for the small intestine
- reduction of hippocampal damage (global ischemic insult): more than 80%
- peptidyl-prolyl isomerase activity (transient focal ischemia): blocked the increase in peptidyl-prolyl isomerase activity
- reduction of infarct size (transient focal ischemia): 53%
- ischemic brain damage [6]: significant reduction in ischemic brain damage
- infarction area [7]: dose-dependently reduced the infarction area
- neuroprotective effect, drug alone (MCO; 1 mg/kg iv alone, 1, 2 or 3 h after occlusion): neuroprotective effects when administered alone up to 1 h following occlusion
- brain damage, combination with rt-PA (MCO; tacrolimus 1 mg/kg plus same dose of rt-PA iv): significant reduction in brain damage was observed at up to 2 h following occlusion
- reduction of ischemic damage in the rat cortex [8]: up to 70%
- neuroprotective effect [9]: long-lasting neuroprotective effects
- cortical brain damage [10]: reducing cortical brain damage
- reductions of cerebral metabolic rate of oxygen and oxygen extraction function [10]: significantly attenuated
- affinity for PgP (PgP [11]): ~0.1 µM
- effect on CYP activities (CYP): little detectable effect
- blood concentrations [12]: significantly higher
- concentration in brain tissue, fold higher [12]: 10 fold
- total clearance, reduction [12]: 66%
- increase of axonal growth (peripheral nerve damage): 20%

SMILES: O=C(O)[C@H]1O[C@@H](Oc2cc3oc(-c4ccccc4)cc(=O)c3c(O)c2O)[C@H](O)[C@@H](O)[C@@H]1O [baicalin]
- transport of nimodipine across the BBB (PgP [13]): increased the transport of nimodipine across the BBB

SMILES: COc1ccc2cc3[n+](cc2c1OC)CCc1cc2c(cc1-3)OCO2 [berberine]
- transport of nimodipine across the BBB (PgP [13]): increased the transport of nimodipine across the BBB
